Laboratory results: patent US20250281609A1, “COMPOSITION FOR TREATING OR PREVENTING CANCER” (ORGANOIDSCIENCES LTD., priority 2021, published 2025)

Key:
[1] = test system: colorectal cancer organoids; assay: Colorectal cancer organoid viability (growth rate and death rate); assay type: cell-based, human; details: for increase in efficacy (cancer organoid death) of the combination of the HVEM inhibitor with the HSP inhibitor compared to HVEM inhibitor alone: 72 hours after treatment, FIG. 6
Description: To evaluate whether the combination of HVEM inhibitor and HSP inhibitor exerts a synergistic effect as a cancer preventive or therapeutic agent, we conducted the following experiment. Specifically, colorectal cancer organoids were treated with either an HVEM inhibitor alone, an HSP inhibitor alone, or a combination of both. The anticancer efficacy of the combination treatment was assessed by measuring cancer organoid viability.
For HVEM inhibitor, anti-HVEM antibodies (CW10, Santa Cruz, #sc-21718; R&D Systems, #MAB356-SP) were used at 10 nM. For inhibitor of HVEM ligands, anti-BTLA antibodies (Mybiosource, #MBS633646; Adipogen, #AG-20B-0049) were used at 10 nM. For HSP inhibitors, Luminespib (AUY922, Selleck, #s1069; HSP90-targeting), Ganetespib (STA-9090, Selleck, #s1159; HSP90-targeting), Tanespimycin (17-AAG, Selleck, #s1141; HSP90-targeting), BIIB021 (Selleck, #s1175; HSP90-targeting), Onalespib (AT13387, Selleck, #s1163; HSP90-targeting), HSP990 (#s7097; Selleck, HSP90-targeting), KNK437 (#s7750; Selleck, HSP40-targeting), and VER-155008 (Selleck, #s7751; HSP70-targeting) were used.
The viability of cancer organoids was assessed through growth rate and death rate of cancer organoids as follows.

[2] = test system: colorectal cancer organoids xenograft tumors; assay: Mouse tumor xenograft model using colorectal cancer organoids, humanized with PBMCs; assay type: in vivo; details: harvested tumor tissues, FIG. 10
Description: Specifically, monotherapy with an HVEM inhibitor, monotherapy with a BTLA inhibitor, monotherapy with an HSP inhibitor, combination therapy with an HVEM inhibitor and an HSP inhibitor, combination therapy with a BTLA inhibitor and an HSP inhibitor, or combination therapy with an HVEM inhibitor, a BTLA inhibitor, and an HSP inhibitor was administered to a mouse tumor xenograft model using colorectal cancer organoids. In addition, since the effect of inhibitors of HVEM and its ligand requires the presence of immune cells, PBMCs were introduced into the mice bearing the xenograft tumors to generate humanized mice. The inhibitors were administered a total of four times on days 15, 18, 21, and 24 after tumor transplantation.
As an HVEM (Herpesvirus entry mediator) inhibitor, an anti-HVEM antibody (CW10, Santa Cruz, #sc-21718) was used at a dose of 1 mg/kg; as an inhibitor of the HVEM ligand, an anti-BTLA antibody (Mybiosource, #MBS633646) was used at a dose of 1 mg/kg; and as an HSP (heat shock protein) inhibitor, Luminespib (AUY922, Selleck, #s1069; targeting HSP90) was used at a dose of 0.5 mg/kg.
From day 7 after tumor implantation, tumor size was measured three times per week. After completion of the experiment, the shape of the harvested tumors was analyzed, and tumor weight was measured. […]

[3] = colorectal cancer organoids, increasing concentrations

| SMILES | increase in efficacy (cancer organoid death) of the combination of the HVEM inhibitor with the HSP inhibitor compared to HVEM inhibitor alone ([1]; colorectal cancer organoids) | increase in cancer organoid death rate, high concentration vs low concentration ([1]; 100 nM or higher compared to 1 to 5 nM) [fold] | cancer organoid death rate [1, 3] | growth rate of cancer organoids over time [1, 3] | hCD8+ T cells infiltrated into the tumor tissue (IHC) [2] |
| --- | --- | --- | --- | --- | --- |
| C=CCNC1=C2C[C@@H](C)C[C@H](OC)[C@H](O)[C@@H](C)/C=C(\C)[C@H](OC(N)=O)[C@@H](OC)/C=C\C=C(/C)C(=O)NC(=CC1=O)C2=O [17-AAG, Tanespimycin] | approximately 2.9 fold | – | – | – | – |
| CCNC(=O)c1noc(-c2cc(C(C)C)c(O)cc2O)c1-c1ccc(CN2CCOCC2)cc1 [AUY922, Luminespib] | ≥ 3.4 fold | > 3.6 | increased cancer organoids death rate | reduced growth over time | barely detected |
| CC(C)c1cc(-c2n[nH]c(=O)n2-c2ccc3c(ccn3C)c2)c(O)cc1O [STA-9090, Ganetespib] | approximately 2.9 fold | – | – | – | – |
